Assay results published in patent US20250281464A1, “TREATMENT OF PATHOGENIC NEISSERIA SP. INFECTION WITH TRIAZOLE ANTIFUNGAL AGENTS” (Virginia Tech Intellectual Properties, Inc., priority 2022, published 2025).
Converted amounts (≈) assume the structure as drawn. Read-outs that look alike come from different tables or passages of the source.

Key:
L. jensenii = experiment: MIC against commensal vaginal Lactobacillus strains; type: cell-based, Lactobacillus jensenii; conditions: for MIC: Lactobacillus jensenii
[1] = tested on: Bifidobacterium angulatum; experiment: MIC against normal gut microbiota; type: cell-based; conditions: Bifidobacterium angulatum (1 strain)
Description: (§1) Disrupting the intestinal microbiota using broad-spectrum antimicrobial therapy increases the susceptibility of hosts to C. difficile colonization.

[2] = MIC against normal gut microbiota; type: cell-based
Description: as §1

Enterococcus faecalis = experiment: MIC against normal gut microbiota; type: cell-based; conditions: Enterococcus faecalis (1 strain)
Description: as §1

Enterococcus faecium = experiment: MIC against normal gut microbiota; type: cell-based; conditions: Enterococcus faecium (1 strain)
Description: as §1

Lactobacillus rhamnosus = experiment: MIC against normal gut microbiota; type: cell-based; conditions: Lactobacillus rhamnosus (1 strain)
Description: as §1

Lactobacillus casei = experiment: MIC against normal gut microbiota; type: cell-based; conditions: Lactobacillus casei (1 strain)
Description: as §1

Bacteroides dorei = experiment: MIC against normal gut microbiota; type: cell-based; conditions: Bacteroides dorei (2 strains)
Description: as §1

Lactobacillus brevis = experiment: MIC against normal gut microbiota; type: cell-based; conditions: Lactobacillus brevis (1 strain)
Description: as §1

Staphylococcus aureus = experiment: MIC against normal gut microbiota; type: cell-based; conditions: Staphylococcus aureus (1 strain)
Description: as §1

Escherichia coli = experiment: MIC against normal gut microbiota; type: cell-based; conditions: Escherichia coli (1 strain)
Description: as §1

Bacteroides fragilis = experiment: MIC against normal gut microbiota; type: cell-based; conditions: Bacteroides fragilis (4 strains)
Description: as §1

L. gasseri = experiment: MIC against commensal vaginal Lactobacillus strains; type: cell-based, Lactobacillus gasseri; conditions: for MIC: Lactobacillus gasseri
N. gonorrhoeae isolates = experiment: MIC against panel of N. gonorrhoeae clinical isolates; type: cell-based, Neisseria gonorrhoeae; conditions: for MIC50 / MIC90: Neisseria gonorrhoeae; for MIC50: read-out: MIC50; for MIC90: read-out: MIC90
N. gonorrhoeae [3] = experiment: Post-antibiotic effect (PAE) against N. gonorrhoeae; type: cell-based, Neisseria gonorrhoeae; conditions: 1 h exposure at 10×MIC
Description: Determining the PAE of a new antimicrobial is an important step for dosing and has clinical importance.

N. lactamica = experiment: MIC against Neisseria spp.; type: cell-based; conditions: N. lactamica (1 strain)
Description: (§2) Intrigued by the specificity and potent activity of azoles against N. gonorrhoeae, we evaluated the extent of the azoles' antibacterial activity against other Neisseria species (Table 8).

N. flavescens = experiment: MIC against Neisseria spp.; type: cell-based; conditions: N. flavescens (1 strain)
Description: as §2

N. mucosa = experiment: MIC against Neisseria spp.; type: cell-based; conditions: N. mucosa (1 strain)
Description: as §2

N. gonorrhoeae [4] = experiment: Drug library screen against N. gonorrhoeae; type: cell-based, Neisseria gonorrhoeae; conditions: Johns Hopkins Clinical Compounds Library, MCE FDA-Approved Drug Library, Pharmakon library; killing in clinical range
Description: To identify drugs capable of killing Neisseria gonorrhoeae, the Johns Hopkins Clinical Compounds Library (1514), the MCE FDA-Approved Drug Library (2441), and the Pharmakon library (1600) were screened against N. gonorrhoeae. Positive hits that are capable of killing Neisseria gonorrhoeae in clinical range were identified (itraconazole, ravuconazole and isavuconazole).

L. johnsonii = experiment: MIC against commensal vaginal Lactobacillus strains; type: cell-based, Lactobacillus johnsonii
N. meingitidis = experiment: MIC against Neisseria spp.; type: cell-based, Neisseria meningitidis; conditions: N. meingitidis (5 strains)
L. crispatus = experiment: MIC against commensal vaginal Lactobacillus strains; type: cell-based, Lactobacillus crispatus; conditions: for MIC: Lactobacillus crispatus
[5] = Table 1, 104 N. gonorrhoeae isolates
[6] = Table 3, 103 N. gonorrhoeae isolates with different resistance profiles

## C[C@@H](c1nc(-c2ccc(C#N)cc2)cs1)[C@](O)(Cn1cncn1)c1cc(F)ccc1F [Isavuconazole]
L. jensenii; L. jensenii HM-105
  MIC: > 256 µg/mL
L. jensenii; L. jensenii HM-372
  MIC: > 256 µg/mL
L. jensenii; L. jensenii HM-374
  MIC: > 256 µg/mL
L. jensenii; L. jensenii HM-639
  MIC: > 256 µg/mL
L. jensenii; L. jensenii HM-640
  MIC: > 256 µg/mL
L. jensenii; L. jensenii HM-645
  MIC: > 256 µg/mL
L. jensenii; L. jensenii HM-646
  MIC: > 256 µg/mL
L. jensenii; Table 6, L. jensenii (7 strains)
  MIC Range: ≥256 µg/mL
[1]
  MIC Range: >256 µg/mL
[2]; Bacteroides adolescentis (2 strains)
  MIC Range: >256 µg/mL
[2]; Bacteroides breve (2 strains)
  MIC Range: >256 µg/mL
[2]; Bacteroides longum (2 strains)
  MIC Range: >256 µg/mL
Enterococcus faecalis
  MIC Range: >256 µg/mL
Enterococcus faecium
  MIC Range: >256 µg/mL
Lactobacillus rhamnosus
  MIC Range: >256 µg/mL
Lactobacillus casei
  MIC Range: >256 µg/mL
Bacteroides dorei
  MIC Range: >256 µg/mL
Lactobacillus brevis
  MIC Range: >256 µg/mL
Staphylococcus aureus
  MIC Range: >256 µg/mL
Escherichia coli
  MIC Range: >256 µg/mL
Bacteroides fragilis
  MIC Range: >256 µg/mL
L. gasseri; L. gasseri HM-407
  MIC: > 256 µg/mL
L. gasseri; L. gasseri HM-642
  MIC: > 256 µg/mL
L. gasseri; L. gasseri HM-644
  MIC: > 256 µg/mL
L. gasseri; L. gasseri HM-647
  MIC: > 256 µg/mL
L. gasseri; Table 6, L. gasseri (4 strains)
  MIC Range: ≥256 µg/mL
N. gonorrhoeae isolates; [5]
  MIC50: 0.5 µg/mL (≈ 1.14 µM)
  MIC90: 1 µg/mL (≈ 2.29 µM)
  MIC Range: 0.015 to 2 µg/mL
N. gonorrhoeae isolates; [6]
  MIC50: 0.5 µg/mL (≈ 1.14 µM)
  MIC90: 1 µg/mL (≈ 2.29 µM)
  MIC Range: 0.015 to 4 µg/mL
N. gonorrhoeae [3]; strain FA 1090
  PAE: 10 h
N. gonorrhoeae [3]; strain WHO P
  PAE: 10 h
N. gonorrhoeae [3]; strain WHO Y
  PAE: 10 h
N. lactamica
  MIC Range: 1 µg/mL (≈ 2.29 µM)
N. flavescens
  MIC Range: 16 µg/mL (≈ 36.6 µM)
N. mucosa
  MIC Range: 8 µg/mL (≈ 18.3 µM)
N. gonorrhoeae [4]
  screening outcome: Positive hits
L. johnsonii; Lactobacillus johnsonii, L. johnsonii HM-643
  MIC: > 256 µg/mL
L. johnsonii; Table 6, L. johsonii (2 strains)
  MIC Range: ≥256 µg/mL
N. meingitidis
  MIC Range: 0.25 to 0.5 µg/mL
L. crispatus; L. crispatus HM-103
  MIC: > 256 µg/mL
L. crispatus; L. crispatus HM-371
  MIC: > 256 µg/mL
L. crispatus; L. crispatus HM-638
  MIC: > 256 µg/mL
L. crispatus; Table 6, L. crispatus (3 strains)
  MIC Range: ≥256 µg/mL
